In patent US12077503B2, “Substituted cyclic amides and their use as herbicides” (FMC CORPORATION, priority 2015, dated 2024):

Columns and labels:
Type in all cases: in vivo
[1] = test system: wheat (Triticum aestivum); experiment: Test A postemergence; settings: Triticum aestivum, post-emergence, 240 h, read-out: Plant response rating, Wheat
Outline: (§1)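 Preemergence directed soil spray on seeded pots, or postemergence application to plants 2–10 cm, one- to two-leaf. Solvent mixture non-phytotoxic, with surfactant. Scored ~10 d later, visually, 0–100 vs untreated.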

Kochia (Kochia scoparia) [2] = experiment: Test A postemergence; settings: Bassia scoparia, post-emergence, 240 h, read-out: Plant response rating, Kochia
Outline: as §1

corn (Zea mays) = experiment: Test A postemergence; settings: Zea mays, post-emergence, 240 h
Outline: as §1

[3] = test system: giant foxtail (Setaria faberii); experiment: Test A postemergence; settings: Setaria faberi, post-emergence, 240 h, read-out: Plant response rating, Foxtail, Giant
Outline: as §1

[4] = test system: pigweed (Amaranthus retroflexus); experiment: Test A postemergence; settings: Amaranthus retroflexus, post-emergence, 240 h, read-out: Plant response rating, Pigweed
Outline: as §1

[5] = test system: Galium (catchweed bedstraw, Galium aparine); experiment: Test A postemergence; settings: Galium, post-emergence, 240 h, read-out: Plant response rating, Galium
Outline: as §1

[6] = test system: ragweed (common ragweed, Ambrosia elatior); experiment: Test A postemergence; settings: Ambrosia artemisiifolia, post-emergence, 240 h, read-out: Plant response rating, Ragweed
Outline: as §1

[7] = test system: ryegrass, Italian (Italian ryegrass, Lolium multiflorum); experiment: Test A postemergence; settings: Lolium multiflorum, post-emergence, 240 h, read-out: Plant response rating, Ryegrass, Italian
Outline: as §1

[8] = test system: barnyardgrass (Echinochloa crus-galli); experiment: Test A postemergence; settings: Echinochloa crus-galli, post-emergence, 240 h, read-out: Plant response rating, Barnyardgrass
Outline: as §1

[9] = test system: blackgrass (Alopecurus myosuroides); experiment: Test A postemergence; settings: Alopecurus myosuroides, post-emergence, 240 h, read-out: Plant response rating, Blackgrass
Outline: as §1

[10] = test system: ducksalad (Heteranthera limosa); experiment: Test B flooded paddy test; settings: Heteranthera limosa, 250 g ai/ha, Flood; 0 to 100 scale where 0 is no effect and 100 is complete control; read-out: Ducksalad plant response rating
Outline: (§2)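 2-leaf plants; pots flooded 3 cm over soil; cpd added to paddy water; depth held; greenhouse 13–15 d; visual rating vs controls, 0 = no effect, 100 = complete control.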

[11] = test system: sedge, umbrella (small-flower umbrella sedge, Cyperus difformis); experiment: Test B flooded paddy test; settings: Cyperus difformis, 250 g ai/ha, Flood; 0 to 100 scale where 0 is no effect and 100 is complete control; read-out: Sedge, Umbrella plant response rating
Outline: as §2

[12] = test system: barnyardgrass (Echinochloa crus-galli); experiment: Test B flooded paddy test; settings: Echinochloa crus-galli, 250 g ai/ha, Flood; 0 to 100 scale where 0 is no effect and 100 is complete control; read-out: Barnyardgrass plant response rating
Outline: as §2

rice (Oryra sativa) = experiment: Test B flooded paddy test; settings: Oryza sativa, 250 g ai/ha, Flood; 0 to 100 scale where 0 is no effect and 100 is complete control; read-out: Rice plant response rating
Outline: as §2

Kochia (Kochia scoparia) [13] = experiment: Test A preemergence; settings: Bassia scoparia, pre-emergence, 240 h
Outline: as §1

[14] = test system: giant foxtail (Setaria faberii); experiment: Test A preemergence; settings: Setaria faberi, pre-emergence, 240 h
Outline: as §1

[15] = test system: pigweed (Amaranthus retroflexus); experiment: Test A preemergence; settings: Amaranthus retroflexus, pre-emergence, 240 h
[16] = test system: ragweed (common ragweed, Ambrosia elatior); experiment: Test A preemergence; settings: Ambrosia artemisiifolia, pre-emergence, 240 h
Outline: as §1

[17] = test system: ryegrass, Italian (Italian ryegrass, Lolium multiflorum); experiment: Test A preemergence; settings: Lolium multiflorum, pre-emergence, 240 h
Outline: as §1

[18] = test system: barnyardgrass (Echinochloa crus-galli); experiment: Test A preemergence; settings: Echinochloa crus-galli, pre-emergence, 240 h
Outline: as §1

[19] = 125 g ai/ha, Postemergence, visual injury after approximately 10 d, 0 to 100 scale where 0 is no effect and 100 is complete control
[20] = 500 g ai/ha, postemergence, visual injury, 0 to 100 scale (0 no effect, 100 complete control), approx. 10 d

COc1ccc([C@H]2CN(C)C(=O)[C@@H]2C(=O)Nc2ccccc2F)cc1F [Compound 1020]
0%: plant injury at 125 g/ha [1, 19] | Corn plant response rating (crop injury, 0 = no effect, 100 = complete kill) at 125 g/ha (corn (Zea mays); [19]) | pest or weed control at 125 g/ha [6, 19] | pest or weed control at 500 g/ha [6, 20] | pest or weed control at 125 g/ha [9, 19] | pest or weed control at 250 g/ha [11] | pest or weed control at 125 g/ha ([16]; 125 g ai/ha, Preemergence, visual injury rating after approximately 10 d, read-out: Ragweed plant response rating (0 to 100 scale, 0 is no effect, 100 is complete control)) | pest or weed control at 125 g/ha ([17]; 125 g ai/ha, Preemergence, visual injury rating after approximately 10 d, read-out: Ryegrass, Italian plant response rating (0 to 100 scale, 0 is no effect, 100 is complete control))
60%: pest or weed control at 500 g/ha [5, 20]
30%: plant injury at 500 g/ha [1, 20] | Corn plant response rating (crop injury, 0 = no effect, 100 = complete kill) at 500 g/ha (corn (Zea mays); [20]) | pest or weed control at 125 g/ha [4, 19] | pest or weed control at 500 g/ha [4, 20] | pest or weed control at 125 g/ha [7, 19] | pest or weed control at 500 g/ha [7, 20] | pest or weed control at 125 g/ha (Kochia (Kochia scoparia) [13]; 125 g ai/ha, Preemergence, visual injury rating after approximately 10 d, read-out: Kochia plant response rating (0 to 100 scale, 0 is no effect, 100 is complete control)) | pest or weed control at 125 g/ha ([15]; 125 g ai/ha, Preemergence, visual injury rating after approximately 10 d, read-out: Pigweed plant response rating (0 to 100 scale, 0 is no effect, 100 is complete control)) | pest or weed control at 500 g/ha ([17]; 500 g ai/ha, preemergence, visual injury rating about 10 d after treatment, 0 to 100 scale (0 no effect, 100 complete control), read-out: Ryegrass, Italian plant response rating)
50%: pest or weed control at 125 g/ha (Kochia (Kochia scoparia) [2]; [19]) | pest or weed control at 500 g/ha (Kochia (Kochia scoparia) [2]; [20])
90%: pest or weed control at 125 g/ha [3, 19] | pest or weed control at 500 g/ha [3, 20] | pest or weed control at 125 g/ha [8, 19] | pest or weed control at 500 g/ha [8, 20] | pest or weed control at 250 g/ha [10] | pest or weed control at 125 g/ha ([14]; 125 g ai/ha, Preemergence, visual injury rating after approximately 10 d, read-out: Foxtail, Giant plant response rating (0 to 100 scale, 0 is no effect, 100 is complete control)) | pest or weed control at 500 g/ha ([14]; 500 g ai/ha, preemergence, visual injury rating about 10 d after treatment, 0 to 100 scale (0 no effect, 100 complete control), read-out: Foxtail, Giant plant response rating) | pest or weed control at 125 g/ha ([18]; 125 g ai/ha, Preemergence, visual injury rating after approximately 10 d, read-out: Barnyardgrass plant response rating (0 to 100 scale, 0 is no effect, 100 is complete control)) | pest or weed control at 500 g/ha ([18]; 500 g ai/ha, preemergence, visual injury rating about 10 d after treatment, 0 to 100 scale (0 no effect, 100 complete control), read-out: Barnyardgrass plant response rating)
20%: pest or weed control at 500 g/ha [9, 20] | pest or weed control at 250 g/ha (rice (Oryra sativa)) | pest or weed control at 500 g/ha (Kochia (Kochia scoparia) [13]; 500 g ai/ha, preemergence, visual injury rating about 10 d after treatment, 0 to 100 scale (0 no effect, 100 complete control), read-out: Kochia plant response rating) | pest or weed control at 500 g/ha ([16]; 500 g ai/ha, preemergence, visual injury rating about 10 d after treatment, 0 to 100 scale (0 no effect, 100 complete control), read-out: Ragweed plant response rating)
75%: pest or weed control at 250 g/ha [12]
40%: pest or weed control at 125 g/ha [5, 19] | pest or weed control at 500 g/ha ([15]; 500 g ai/ha, preemergence, visual injury rating about 10 d after treatment, 0 to 100 scale (0 no effect, 100 complete control), read-out: Pigweed plant response rating)
